{"source": "patent US20060275289A1", "about": "“Preventive or remedy for inflammatory bowel diseases containing anti-cd81 antibody as the active ingredient” (priority 2003, published 2006)", "key": {"[1]": {"system": "TNBS-induced colitis mouse", "assay": "TNBS (2,4,6-trinitrobenzenesulfonic acid)-induced mouse colitis model", "type": "in vivo", "settings": "antibody 0.1 mg/head i.p. on division day and day 2, SSZ 200 mg/kg orally once daily", "method": "0.5 g of egg albumin (OVA: manufactured by Sigma) and 0.5 g of K2CO3 (manufactured by Nacalai Tesque) were dissolved in 25 ml of distilled water for injection (OVA solution). 0.5 g of 2,4,6-trinitrobenzenesulfonic acid (TNBS: manufactured by Nacalai Tesque) was dissolved in 25 ml of 0.1 M K2CO3 (TNBS solution). The OVA solution and the TNBS solution were mixed, and the mixture was stirred overnight at room temperature. The stirred solution was dialyzed against 0.01 M NaHCO3 (manufactured by Nacalai Tesque) through a dialyzer (Spectra/Por Membrane MWCO:10,000, manufactured by Spectrum Medical Industries Inc.). The dialyzate was subjected to protein quantitative determination by BCA Protein Assay Reagent (manufactured by Pierce).\nA 1:1 emulsion of complete Freunt adjuvant (CFA: manufactured by Difco Laboratories) and 2 mg/ml of TNP-OVA was subcutaneously injected (sensitized) into the back of a 5-week-old SJL/J mouse (SJL/JorlIcoCrj, male, supplied by Nippon Charles River) at a rate of 0.1 ml/head. […]\nThe symptom of colitis from the division day to day 5 after the division was observed. The symptom of colitis was scored according to the conditions of stool [normal stool (score:0), loose stool (score:1) and diarrhea (score:2)]. […]\nOn the final day of the experiment, after euthanasia with a high concentration of CO2, a large bowel was extracted, and the length thereof was measured. […]"}, "[2]": {"system": "normal mice", "settings": "cells incubated 48 hours with 0.2 μg/ml SEB and 10 μM of compound A (condition C); cited from earlier work"}, "[3]": {"system": "IBD-pathogenic cells (mesenteric lymph node cells and spleen cells of TNBS colitis mouse stimulated with Staphylococcal enterotoxin B)", "type": "cell-based"}, "[4]": {"system": "intracellular IFN-γ", "type": "cell-based, mouse", "settings": "SEB 1 μg/ml"}, "[5]": {"settings": "rate of compound-reacted cells for 1% of the cell population, 10 μM compound A"}}}
{"compound": "O=C(O)c1cc(/N=N/c2ccc(S(=O)(=O)Nc3ccccn3)cc2)ccc1O", "note": "[SSZ, sulfasalazine]", "values": [{"measurement": "Intestinal Length mm(S.D)", "setting": "[1]; large bowel length, day 5 after division, control 87.8 (10.3), Dunnet test * 0.01<p<0.05, ** p<0.01", "value": "103.1 (8.3)** mm"}, {"measurement": "Symptom of colitis (S.D)", "setting": "[1]; stool score 0-2, SJL/J mice, control 1.75 (0.46), Steel test * 0.01<p<0.05", "value": "0.71 (0.71)*"}]}
{"compound": "Clc1c(C2(c3ccc(N4CCOCC4)cc3)CCC2)nn2c1NCCC2", "note": "[compound A, 3-chloro-2-[1-(4-morpholin-4-ylphenyl)cyclobutyl]-4,5,6,7-tetrahydropyrazolo[1,5-a]pyrimidine]", "values": [{"measurement": "induction of the symptom of colitis by cells transferred into normal mice", "setting": "[2]", "value": "do not induce the symptom of colitis"}, {"measurement": "Gene chip expression signal, CD81 (101495_at)", "setting": "[3]", "value": 195.1}, {"measurement": "Gene chip expression signal, CDw40 (92962_at)", "setting": "[3]", "value": 63.9}, {"measurement": "Gene chip expression signal, DAP12 (100397_at)", "setting": "[3]", "value": 1144.2}, {"measurement": "Gene chip expression signal, IL-9 (96574_at)", "setting": "[3]", "value": 96.4}, {"measurement": "Gene chip expression signal, IL-10Rβ (99491_at)", "setting": "[3]", "value": 1000.9}, {"measurement": "Gene chip expression signal, IL-17 (99349_at)", "setting": "[3]", "value": 172.4}, {"measurement": "Gene chip expression signal, Integrin β1 (100124_r_at)", "setting": "[3]", "value": 149.4}, {"measurement": "Gene chip expression signal, Lymphotoxin α (102630_s_at)", "setting": "[3]", "value": 220.6}, {"measurement": "Gene chip expression signal, Paired-Ig-like receptor Al (100328_s_at)", "setting": "[3]", "value": 791.2}, {"measurement": "Gene chip expression signal, TCRV γ4 (102745_at)", "setting": "[3]", "value": 33.1}, {"measurement": "IFN-γ gene expression (DNA chip analysis)", "setting": "[3]", "value": "decreased"}, {"measurement": "Compound-reacted cells/presence rate, cell surface marker CD3", "setting": "[4]; [5]", "value": 1.1}, {"measurement": "Compound-reacted cells/presence rate, cell surface marker CD4", "setting": "[4]; [5]", "value": 0.8}, {"measurement": "Compound-reacted cells/presence rate, cell surface marker CD40", "setting": "[4]; [5]", "value": 2.7}, {"measurement": "Compound-reacted cells/presence rate, cell surface marker CD40L in CD3", "setting": "[4]; [5]", "value": 0.8}, {"measurement": "Compound-reacted cells/presence rate, cell surface marker CD81 in CD3", "setting": "[4]; [5]", "value": 11.1}, {"measurement": "Compound-reacted cells/presence rate, cell surface marker CD49d", "setting": "[4]; [5]", "value": 2.4}, {"measurement": "Compound-reacted cells/presence rate, cell surface marker TCRV β3", "setting": "[4]; [5]", "value": 0}, {"measurement": "Compound-reacted cells/presence rate, cell surface marker TCRV γδ", "setting": "[4]; [5]", "value": 4.4}, {"measurement": "Compound-reacted cells (%), cell surface marker CD40L in CD3", "setting": "[4]; share of intracellular IFN-γ-positive cells reduced by compound A (total reduction = 100), 10 μM, presence rate 3.94%", "value": 3.3, "unit": "%"}, {"measurement": "Compound-reacted cells (%), cell surface marker CD81 in CD3", "setting": "[4]; share of intracellular IFN-γ-positive cells reduced by compound A (total reduction = 100), 10 μM, presence rate 4.67%", "value": 51.7, "unit": "%"}, {"measurement": "Compound-reacted cells (%), cell surface marker TCRV γδ", "setting": "[4]; share of intracellular IFN-γ-positive cells reduced by compound A (total reduction = 100), 10 μM, presence rate 5.39%", "value": 23.8, "unit": "%"}, {"measurement": "Compound-reacted cells (%), cell surface marker CD40", "setting": "[4]; share of intracellular IFN-γ-positive cells reduced by compound A (total reduction = 100), 10 μM, presence rate 9.14%", "value": 24.3, "unit": "%"}, {"measurement": "Compound-reacted cells (%), cell surface marker CD49d", "setting": "[4]; share of intracellular IFN-γ-positive cells reduced by compound A (total reduction = 100), 10 μM, presence rate 16.4%", "value": 39.6, "unit": "%"}, {"measurement": "Compound-reacted cells (%), cell surface marker CD4", "setting": "[4]; share of intracellular IFN-γ-positive cells reduced by compound A (total reduction = 100), 10 μM, presence rate 45.7%", "value": 55.6, "unit": "%"}, {"measurement": "Compound-reacted cells (%), cell surface marker CD3", "setting": "[4]; share of intracellular IFN-γ-positive cells reduced by compound A (total reduction = 100), 10 μM, presence rate 92.1%", "value": 103.4, "unit": "%"}, {"measurement": "Compound-reacted cells (%), cell surface marker TCRV β3", "setting": "[4]; share of intracellular IFN-γ-positive cells reduced by compound A (total reduction = 100), 10 μM, presence rate 100%", "value": 0, "unit": "%"}]}
